Experimental data as given in the supplement of paper PMC10307832.

Experiments:
Assay in all cases: relative viability (nuclei count vs DMSO), 5 days (fraction); higher = more cells survive
NCI-H2009 = test system: NCI-H2009
Outline: (§1)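 Lung cancer cell lines, seeded in 1536-well plates, were treated the following day by pin tool with a single drug or with five library-drug doses (not always all listed) in √10 steps on top of a fixed anchor-drug dose. Cells were fixed and nuclei stained in one step after 5 days, and nuclei were counted. Relative viability is the nuclei count for treated wells divided by that for vehicle wells, reported as medians of duplicate plates.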

NCI-H2085 = test system: NCI-H2085
Outline: as §1

LU99A = test system: LU99A
Outline: as §1

NCI-H650 = test system: NCI-H650
Outline: as §1

NCI-H460 = test system: NCI-H460
Outline: as §1

NCI-H2126 = test system: NCI-H2126
Outline: as §1

HARA = test system: HARA
Outline: as §1

NCI-H1993 = test system: NCI-H1993
Outline: as §1

LC-2-ad = test system: LC-2-ad
Outline: as §1

NCI-H838 = test system: NCI-H838
Outline: as §1

HCC-78 = test system: HCC-78
Outline: as §1

EPLC-272H = test system: EPLC-272H
Outline: as §1

NCI-H2347 = test system: NCI-H2347
Outline: as §1

UMC-11 = test system: UMC-11
Outline: as §1

SW 1573 = test system: SW 1573
Outline: as §1

PC-14 = test system: PC-14
Outline: as §1

NCI-H1915 = test system: NCI-H1915
Outline: as §1

ABC-1 = test system: ABC-1
Outline: as §1

COR-L23 = test system: COR-L23
Outline: as §1

NCI-H1651 = test system: NCI-H1651
Outline: as §1

HCC-15 = test system: HCC-15
Outline: as §1

NCI-H358 = test system: NCI-H358
Outline: as §1

Q: `C[C@@H]1CN(CC(=O)Nc2ccc3c(c2)Cc2cccc(-c4cc(=O)cc(N5CCOCC5)o4)c2S3)C[C@H](C)O1` + C[C@@H](Oc1cc(-c2cnn(C3CCNCC3)c2)cnc1N)c1c(Cl)ccc(F)c1Cl [Crizotinib] (partner 1 µM) was tested. Which relative viability (NCI-H2009; first compound 0.04 µM) did it give?
A: 1.05

Q: And the relative viability (NCI-H2009; first compound 0.1265 µM)?
A: 1.03

Q: What about the relative viability (NCI-H2009; first compound 0.4 µM) of the same molecule?
A: 1.09

Q: And the relative viability (NCI-H2009; first compound 4 µM)?
A: 0.769

Q: And the relative viability (NCI-H2085; first compound 0.04 µM)?
A: 0.922

Q: And the relative viability (NCI-H2085; first compound 0.1265 µM)?
A: 0.88

Q: And the relative viability (NCI-H2085; first compound 0.4 µM)?
A: 0.773

Q: And the relative viability (NCI-H2085; first compound 4 µM)?
A: 0.665

Q: What about the relative viability (LU99A; first compound 0.04 µM) of the same molecule?
A: 0.523

Q: What about the relative viability (LU99A; first compound 0.1265 µM) of the same molecule?
A: 0.636

Q: What about the relative viability (LU99A; first compound 0.4 µM) of the same molecule?
A: 0.64

Q: What about the relative viability (LU99A; first compound 4 µM) of the same molecule?
A: 0.569

Q: And the relative viability (NCI-H650; first compound 0.04 µM)?
A: 0.433

Q: And the relative viability (NCI-H650; first compound 0.1265 µM)?
A: 0.753

Q: And the relative viability (NCI-H650; first compound 0.4 µM)?
A: 0.727

Q: What about the relative viability (NCI-H650; first compound 4 µM) of the same molecule?
A: 0.602

Q: What about the relative viability (NCI-H460; first compound 0.04 µM) of the same molecule?
A: 0.973

Q: What about the relative viability (NCI-H460; first compound 0.1265 µM) of the same molecule?
A: 0.924

Q: What about the relative viability (NCI-H460; first compound 0.4 µM) of the same molecule?
A: 0.971

Q: And the relative viability (NCI-H460; first compound 4 µM)?
A: 0.662

Q: What about the relative viability (NCI-H2126; first compound 0.04 µM) of the same molecule?
A: 1.05

Q: And the relative viability (NCI-H2126; first compound 0.1265 µM)?
A: 1.02

Q: What about the relative viability (NCI-H2126; first compound 0.4 µM) of the same molecule?
A: 1.05

Q: What about the relative viability (NCI-H2126; first compound 4 µM) of the same molecule?
A: 1.02

Q: And the relative viability (HARA; first compound 0.04 µM)?
A: 0.697

Q: What about the relative viability (HARA; first compound 0.1265 µM) of the same molecule?
A: 0.96

Q: And the relative viability (HARA; first compound 0.4 µM)?
A: 1.07

Q: And the relative viability (HARA; first compound 4 µM)?
A: 0.988

Q: And the relative viability (NCI-H1993; first compound 0.04 µM)?
A: 0.876

Q: What about the relative viability (NCI-H1993; first compound 0.1265 µM) of the same molecule?
A: 0.846

Q: What about the relative viability (NCI-H1993; first compound 0.4 µM) of the same molecule?
A: 0.661

Q: What about the relative viability (NCI-H1993; first compound 4 µM) of the same molecule?
A: 0.85

Q: What about the relative viability (LC-2-ad; first compound 0.04 µM) of the same molecule?
A: 0.386

Q: And the relative viability (LC-2-ad; first compound 0.1265 µM)?
A: 0.455

Q: And the relative viability (LC-2-ad; first compound 0.4 µM)?
A: 0.434

Q: What about the relative viability (LC-2-ad; first compound 4 µM) of the same molecule?
A: 0.43

Q: And the relative viability (NCI-H838; first compound 0.04 µM)?
A: 0.886

Q: And the relative viability (NCI-H838; first compound 0.1265 µM)?
A: 0.77

Q: What about the relative viability (NCI-H838; first compound 0.4 µM) of the same molecule?
A: 0.755

Q: And the relative viability (NCI-H838; first compound 4 µM)?
A: 0.616

Q: And the relative viability (HCC-78; first compound 0.04 µM)?
A: 0.344

Q: What about the relative viability (HCC-78; first compound 0.1265 µM) of the same molecule?
A: 0.349

Q: What about the relative viability (HCC-78; first compound 0.4 µM) of the same molecule?
A: 0.308

Q: What about the relative viability (HCC-78; first compound 4 µM) of the same molecule?
A: 0.348

Q: What about the relative viability (EPLC-272H; first compound 0.04 µM) of the same molecule?
A: 1.27

Q: And the relative viability (EPLC-272H; first compound 0.1265 µM)?
A: 0.971

Q: And the relative viability (EPLC-272H; first compound 0.4 µM)?
A: 0.997

Q: And the relative viability (EPLC-272H; first compound 4 µM)?
A: 0.83

Q: And the relative viability (NCI-H2347; first compound 0.04 µM)?
A: 0.784

Q: What about the relative viability (NCI-H2347; first compound 0.1265 µM) of the same molecule?
A: 0.754

Q: And the relative viability (NCI-H2347; first compound 0.4 µM)?
A: 0.735

Q: And the relative viability (NCI-H2347; first compound 4 µM)?
A: 0.578

Q: What about the relative viability (UMC-11; first compound 0.04 µM) of the same molecule?
A: 0.747

Q: And the relative viability (UMC-11; first compound 0.1265 µM)?
A: 0.644

Q: And the relative viability (UMC-11; first compound 0.4 µM)?
A: 0.613

Q: And the relative viability (UMC-11; first compound 4 µM)?
A: 0.385

Q: What about the relative viability (SW 1573; first compound 0.04 µM) of the same molecule?
A: 0.904

Q: What about the relative viability (SW 1573; first compound 0.1265 µM) of the same molecule?
A: 0.918

Q: What about the relative viability (SW 1573; first compound 0.4 µM) of the same molecule?
A: 0.744

Q: What about the relative viability (SW 1573; first compound 4 µM) of the same molecule?
A: 0.746

Q: And the relative viability (PC-14; first compound 0.04 µM)?
A: 0.976

Q: And the relative viability (PC-14; first compound 0.1265 µM)?
A: 0.982

Q: What about the relative viability (PC-14; first compound 0.4 µM) of the same molecule?
A: 0.859

Q: What about the relative viability (PC-14; first compound 4 µM) of the same molecule?
A: 0.706

Q: And the relative viability (NCI-H1915; first compound 0.04 µM)?
A: 0.9

Q: And the relative viability (NCI-H1915; first compound 0.1265 µM)?
A: 0.886

Q: What about the relative viability (NCI-H1915; first compound 0.4 µM) of the same molecule?
A: 0.95

Q: And the relative viability (NCI-H1915; first compound 4 µM)?
A: 0.853

Q: And the relative viability (ABC-1; first compound 0.1265 µM)?
A: 1.17

Q: And the relative viability (ABC-1; first compound 0.4 µM)?
A: 1.15

Q: What about the relative viability (ABC-1; first compound 4 µM) of the same molecule?
A: 0.723

Q: And the relative viability (COR-L23; first compound 0.04 µM)?
A: 0.678

Q: And the relative viability (COR-L23; first compound 0.1265 µM)?
A: 0.625

Q: What about the relative viability (COR-L23; first compound 0.4 µM) of the same molecule?
A: 0.693

Q: And the relative viability (COR-L23; first compound 4 µM)?
A: 0.516

Q: And the relative viability (NCI-H1651; first compound 0.04 µM)?
A: 0.842

Q: What about the relative viability (NCI-H1651; first compound 0.1265 µM) of the same molecule?
A: 0.859

Q: What about the relative viability (NCI-H1651; first compound 0.4 µM) of the same molecule?
A: 0.903

Q: What about the relative viability (NCI-H1651; first compound 4 µM) of the same molecule?
A: 0.882

Q: What about the relative viability (HCC-15; first compound 0.04 µM) of the same molecule?
A: 0.8

Q: What about the relative viability (HCC-15; first compound 0.1265 µM) of the same molecule?
A: 0.75

Q: And the relative viability (HCC-15; first compound 0.4 µM)?
A: 0.831

Q: And the relative viability (HCC-15; first compound 4 µM)?
A: 0.734

Q: And the relative viability (NCI-H358; first compound 0.04 µM)?
A: 0.456

Q: And the relative viability (NCI-H358; first compound 0.1265 µM)?
A: 0.465

Q: What about the relative viability (NCI-H358; first compound 0.4 µM) of the same molecule?
A: 0.718

Q: And the relative viability (NCI-H358; first compound 4 µM)?
A: 0.365
